Results on 21 compounds are retold here after patent US3939270A, “Pharmaceutical preparations containing α-aminopenicillins” (priority 1970, dated 1976).

The nature of data set [1]: hydrolysis of esters in phosphate buffer. The conditions noted are these: pH 7.4, 10 μg/ml, 30 min, 37°C, corrected for blank, read-out: % hydrolyzed after 30 min at 37°C, phosphate buffer. Format: in vitro ADME. Here is the method:
(§1) The hydrolysis of the esters of the aminopenicillins prepared according to the invention were determined in buffer solution with and without human serum being present. The esters were incubated for 30 min at 37°C at a concentration of 10 μg/ml in Sorensen's phosphate buffer (pH 7.4) and in another experiment in the same buffer containing 10 % human serum. The test solutions were extracted with ethyl acetate to remove unhydrolyzed ester and were analyzed microbiologically for their contents of aminopenicillin. Blank values were obtained by dissolving the esters in phosphate buffer at the same concentration and immediately perform the extraction. The values in the table are corrected for the blank values.

Data set [2] can be described thus: hydrolysis of esters in phosphate buffer + 10% human serum. The data set is classed as in vitro ADME. The conditions noted are these: buffer with 10% serum; pH 7.4, 10% human serum, 10 μg/ml, 30 min, 37°C, corrected for blank; read-out: % hydrolyzed after 30 min at 37°C, phosphate buffer + 10% human serum. Here is the method: as §1
The conditions of data set [3]: background statement on α-aminobenzylpenicillin; cited from earlier work.
A further data set has as its system Staph.aur. Oxford. The data set can be described thus: antibacterial activity, tube dilution procedure in broth, Staph. aureus Oxford. The data set is classed as cell-based. The conditions noted are these: Staphylococcus aureus. The source says: (§2) (termination of concentration according to the hydroxamate method; antibacterial activity determined by tube dilution procedure in broth).

Data set [4] relates to E.coli. The data set can be described thus: antibacterial activity, tube dilution procedure in broth, E. coli. Format: cell-based. The following applies: Escherichia coli.
From the text: as §2

The next data set has as its system P.mirabilis. The data set can be described thus: antibacterial activity, tube dilution procedure in broth, P. mirabilis. The data set is classed as cell-based. The conditions noted are these: Proteus mirabilis.
From the text: as §2

For data set [5], the system named is Staph. aureus Oxford. The data set can be described thus: growth inhibition of Staph. aureus Oxford (Examples). The conditions noted are these: for MIC: Staphylococcus aureus, read-out: inhibited the growth of Staph. aureus Oxford at a concentration of. The data set is classed as cell-based.
A further data set relates to E. coli. The data set is described as follows: growth inhibition of E. coli (Example 7a). The data set is classed as cell-based. The following applies: Escherichia coli; read-out: inhibited the growth of E. coli at.
The test system of another data set is P. mirabilis. The data set can be described thus: growth inhibition of P. mirabilis (Example 7a). Format: cell-based. The conditions noted are these: Proteus mirabilis; read-out: inhibited the growth of P. mirabilis at.
The conditions of data set [6]: human, in vivo, po, 480 min. Here is the method:
The oral absorption of 1'-ethoxycarbonyloxyethyl 6-(D-α-aminophenylacetamino)penicillanate (I) and of 1'-acetoxyethyl6-(D-α-aminophenylacetamido)penicillanate (II) was studied in a cross-over experiment in 9 healthy male volunteers using 6-(D-α-aminophenylacetamido)penicillanic acid (ampicillin) as a reference. The compounds were administered in tablets with the following composition:
The amounts of the esters correspond to 250 mg of free ampicillin. The reference compound was given in a commercially available tablet (Doktacillin 0.25 g) containing 250 mg of free ampicillin. The tablets were taken on an empty stomach. Blood samples were drawn at preset intervals and analyzed for their contents of ampicillin using a microbiological essay. The following mean serum levels (in μg/ml) with standard error of the mean were found:
The mean cumulative urinary excretions after 8 hours in percentage of the dose given were: […]

The subject of data set [7] is Staph. aureus Oxford. The data set is described as follows: growth inhibition of Staph. aureus Oxford, solution test on agar. The data set is classed as cell-based. The conditions noted are these: Staphylococcus aureus, read-out: inhibited the growth of Staph. Aureus Oxford at a concentration of. The procedure:
(§3) The product inhibited the growth of Staph. Aureus Oxford at a concentration of 0.13 μg/ml and of E.coliat 125 μg/ml (solution test on agar) and contained in its IR-spectrum a strong absorption band at 1750 cm^-^1 showing presence of a β-lactame and an ester function.

The subject of data set [8] is E.coli. The data set can be described thus: growth inhibition of E. coli, solution test on agar. The following applies: Escherichia coli, read-out: inhibited the growth of E.coli at. Format: cell-based. Here is the method: as §3

≈ marks a conversion by molar mass, not a printed value.

Take `CCCCC(=O)OC(C)OC(=O)[C@@H]1N2C(=O)[C@@H](NC(=O)[C@H](N)c3ccccc3)[C@H]2SC1(C)C` (stereo partly drawn) [10 --CH--OCOC4 H9, 1'-valeryloxy-ethyl 6-(D-α-aminophenylacetamido)penicillanate]: the degraded at 0.5 h in data set [1] was determined as 4.9%. Moreover, in [2], the metabolised at 0.5 h was found to be 14.3%.
In the same order, the values of `CC(OC(=O)C(C)C)OC(=O)[C@@H]1N2C(=O)[C@@H](NC(=O)[C@H](N)c3ccccc3)[C@H]2SC1(C)C` (stereo partly drawn) [10 --CH--OCOCH(CH3)2, 1'-isobutyroxy-ethyl 6-(D-α-aminophenylacetamido)penicillanate] are 5.2% and 12.1%.
Turning to `CC1(C)S[C@@H]2[C@H](NC(=O)[C@H](N)c3ccccc3)C(=O)N2[C@H]1C(=O)O` [Ampicillin, 6-(D-α-aminophenylacetamido)penicillanic acid], the oral absorption result in data set [3] is “orally absorbed relatively incompletely”.
As for `CCOC(=O)NCOC(=O)[C@@H]1N2C(=O)[C@@H](NC(=O)[C@H](N)c3ccccc3)[C@H]2SC1(C)C` [Ethylcarbamatomethylester, ethoxycarbonylaminomethyl 6-(D-α-aminophenylacetamido)penicillanate], the MIC against Staph.aur. Oxford worked out at 0.16 µg/mL (≈ 0.355 µM); with E.coli [4] it was 12.5 µg/mL (≈ 27.7 µM); in the data set on P.mirabilis, 6.25 µg/mL (≈ 13.9 µM). In addition, the degraded at 0.5 h in data set [1] was determined as 7.1%. The metabolised at 0.5 h in [2] worked out at 15.2%.
For `CC(=O)OC(C)OC(=O)[C@@H]1N2C(=O)[C@@H](NC(=O)C(N)CCC(C)C)[C@H]2SC1(C)C` (stereo partly drawn) [Example 5, 1'-Acetoxyethyl α-amino-δ-methylpentylpenicillinate], the MIC in the data set on Staph. aureus Oxford [5] turned out to be 0.63 µg/mL (≈ 1.47 µM). In data set [1], the degraded at 0.5 h came out at 6%. In addition, the metabolised at 0.5 h in [2] stood at 15.3%.
For `CC(=O)OC(C)OC(=O)[C@@H]1N2C(=O)[C@@H](NC(=O)[C@H](N)c3ccccc3)[C@H]2SC1(C)C` (stereo partly drawn) [Example 7, 1'-Acetoxyethyl 6-(D-α-aminophenylacetamido)penicillanate], the MIC in the data set on Staph. aureus Oxford [5] is 0.32 µg/mL (≈ 0.735 µM); in the data set with E. coli it was 50 µg/mL (≈ 115 µM); with P. mirabilis, 50 µg/mL (≈ 115 µM). Moreover, the “inhibited the growth of Staph. aureus Oxford at a concentration of” value in the data set with Staph. aureus Oxford [5] (listed as Example 7b) worked out at 0.25 µg/mL. In data set [6], the “mean cumulative urinary excretion after 8 hours in percentage of the dose given” value stood at 53.7 ± 4.9%. Besides, the degraded at 0.5 h in data set [1] was 7%. Further, the metabolised at 0.5 h in data set [2] turned out to be 17%.
As for `CCC(=O)OC(C)OC(=O)[C@@H]1N2C(=O)[C@@H](NC(=O)[C@H](N)c3ccccc3)[C@H]2SC1(C)C` (stereo partly drawn) [Example 9, 1'-Propionyloxyethyl 6-(D-α-aminophenylacetamido) penicillanate], the MIC with Staph. aureus Oxford [5] came to 0.63 µg/mL (≈ 1.4 µM). The degraded at 0.5 h in [1] was found to be 6.8%. In data set [2], the metabolised at 0.5 h is 17.6%.
Consider `COC(=O)OCOC(=O)[C@@H]1N2C(=O)[C@@H](NC(=O)[C@H](N)c3ccccc3)[C@H]2SC1(C)C` [Example 12, Methoxycarbonyloxymethyl 6-(D-α-aminophenylacetamido) penicillanate], for which the MIC in the data set with Staph. aureus Oxford [5] was 0.13 µg/mL (≈ 0.297 µM); against Staph.aur. Oxford it was 0.16 µg/mL (≈ 0.366 µM); in the data set on E.coli [4] it was 25 µg/mL (≈ 57.1 µM); with P.mirabilis it was 6.25 µg/mL (≈ 14.3 µM). The degraded at 0.5 h in data set [1] was found to be 24.8%. Moreover, the metabolised at 0.5 h in data set [2] is 77.9%.
Consider `CCOC(=O)OC(C)OC(=O)[C@@H]1N2C(=O)[C@@H](NC(=O)[C@H](N)c3ccccc3)[C@H]2SC1(C)C` (stereo partly drawn) [Example 15, 1'-Ethoxycarbonyloxyethyl 6-(D-α-aminophenylacetamido) penicillanate], for which the MIC is 0.13 µg/mL (≈ 0.279 µM) in the data set with Staph. aureus Oxford [5], 0.13 µg/mL (≈ 0.279 µM) with Staph. aureus Oxford [7] and 125 µg/mL (≈ 269 µM) in the data set on E.coli [8]. The “mean cumulative urinary excretion after 8 hours in percentage of the dose given” value in [6] is given as 53.4 ± 2.5%. Besides, in [1], the degraded at 0.5 h worked out at 3.8%. The metabolised at 0.5 h in data set [2] is 57.1%.
As to `CCOC(=O)OCOC(=O)[C@@H]1N2C(=O)[C@@H](NC(=O)[C@H](N)c3ccccc3)[C@H]2SC1(C)C` [Example 17, Ethoxycarbonyloxymethyl 6-(D-α-aminophenylacetamido) penicillanate], the MIC with Staph. aureus Oxford [5] turned out to be 0.05 µg/mL (≈ 0.111 µM). For the same compound, the degraded at 0.5 h in data set [1] is 13.3%. The metabolised at 0.5 h in [2] was 64.7%.
As for `CCCOC(=O)OCOC(=O)[C@@H]1N2C(=O)[C@@H](NC(=O)[C@H](N)c3ccccc3)[C@H]2SC1(C)C` [Example 18, Propoxycarbonyloxymethyl 6-(D-α-aminophenylacetamido) penicillanate], in the data set with Staph. aureus Oxford [5], the MIC worked out at 0.05 µg/mL (≈ 0.107 µM). Also, in data set [1], the degraded at 0.5 h was found to be 14.5%. Besides, the metabolised at 0.5 h in data set [2] amounted to 53.7%.
On the same counts, the results for `CC(C)OC(=O)OCOC(=O)[C@@H]1N2C(=O)[C@@H](NC(=O)[C@H](N)c3ccccc3)[C@H]2SC1(C)C` [Example 19, Isopropoxycarbonyloxymethyl 6-(D-α-aminophenylacetamido)penicillanate] are 0.05 µg/mL (≈ 0.107 µM), 15.2% and 68.4%.
For `CCCCOC(=O)OCOC(=O)[C@@H]1N2C(=O)[C@@H](NC(=O)[C@H](N)c3ccccc3)[C@H]2SC1(C)C` [Example 20, Butoxycarbonyloxymethyl 6-(D-α-aminophenylacetamido) penicillanate], the MIC with Staph. aureus Oxford [5] came out at 0.05 µg/mL (≈ 0.104 µM). In addition, the degraded at 0.5 h in data set [1] came to 13%. For the same compound, the metabolised at 0.5 h in data set [2] turned out to be 41.1%.
In the same order, the values of `CC(=O)OC(C)OC(=O)[C@@H]1N2C(=O)[C@@H](NC(=O)[C@H](N)c3cccc(F)c3)[C@H]2SC1(C)C` (stereo partly drawn) [Example 22, 1'-acetoxy-ethyl 6-(D-α-amino-m-fluorophenylacetamido) penicillanate] are 0.25 µg/mL (≈ 0.551 µM), 3.1% and 16.4%.
For the compound `CCOC(=O)OC(C)OC(=O)[C@@H]1N2C(=O)[C@@H](NC(=O)[C@H](N)c3cccc(F)c3)[C@H]2SC1(C)C` (stereo partly drawn) [Example 23, 1'-Ethyloxycarbonyloxyethyl 6-(D-α-amino-m-fluorophenylacetamido)penicillanate], in data set [1], the degraded at 0.5 h was determined as 2.6%. Further, the metabolised at 0.5 h in data set [2] turned out to be 37.7%.
On to `CC(=O)OC(C)OC(=O)[C@@H]1N2C(=O)[C@@H](NC(=O)[C@H](N)c3ccc(F)cc3)[C@H]2SC1(C)C` (stereo partly drawn) [Example 24, 1'-Acetoxyethyl 6-(D-α-amino-p-fluorophenylacetamido)penicillanate], for which, in the data set on Staph. aureus Oxford [5], the MIC worked out at 0.25 µg/mL (≈ 0.551 µM). Moreover, the degraded at 0.5 h in [1] was determined as 9%. Also, the metabolised at 0.5 h in [2] came out at 14.3%.
For `CCOC(=O)OC(C)OC(=O)[C@@H]1N2C(=O)[C@@H](NC(=O)[C@H](N)c3ccc(F)cc3)[C@H]2SC1(C)C` (stereo partly drawn) [Example 25, 1'-Ethyloxycarbonyloxyethyl 6-(D-α-amino-p-fluorophenylacetamido)penicillanate], the MIC in the data set with Staph. aureus Oxford [5] was found to be 0.25 µg/mL (≈ 0.517 µM). Also, the degraded at 0.5 h in data set [1] stood at 1.4%. For the same compound, the metabolised at 0.5 h in data set [2] turned out to be 20.2%.
In the same order, the values of `CC(=O)OC(C)OC(=O)[C@@H]1N2C(=O)[C@@H](NC(=O)C(N)c3ccc(Cl)cc3)[C@H]2SC1(C)C` (stereo partly drawn) [Example 26, 1'-Acetoxyetyl 6-(α-amino-p-chlorophenylacetamido)penicillanate] are 0.63 µg/mL (≈ 1.34 µM), 10.8% and 15.6%.
In the same order, the values of `CC(=O)OC(C)OC(=O)[C@@H]1N2C(=O)[C@@H](NC(=O)[C@H](N)c3ccc(O)cc3)[C@H]2SC1(C)C` (stereo partly drawn) [Example 27, 1'-Acetoxyethyl 6-(D-α-amino-p-hydroxyphenylacetamido)penicillanate] are 0.25 µg/mL (≈ 0.554 µM), 2.5% and 6.8%.
In the same order, the values of `CCOC(=O)OC(C)OC(=O)[C@@H]1N2C(=O)[C@@H](NC(=O)[C@H](N)c3ccc(O)cc3)[C@H]2SC1(C)C` (stereo partly drawn) [Example 28, 1'-Ethoxycarbonyloxyethyl 6-(D-α-amino-p-hydroxyphenylacetamido)penicillanate] are 0.25 µg/mL (≈ 0.519 µM), 5% and 33.1%.
Take `CC(=O)OC(C)OC(=O)[C@@H]1N2C(=O)[C@@H](NC(=O)C(N)c3ccoc3)[C@H]2SC1(C)C` (stereo partly drawn) [Example 29, 1'-Acetoxyethyl 6-(α-amino-3-furylacetamido)penicillanate]: the MIC in the data set on Staph. aureus Oxford [5] is 0.63 µg/mL (≈ 1.48 µM). The degraded at 0.5 h in data set [1] amounted to 3.5%. The metabolised at 0.5 h in data set [2] was found to be 12.4%.
